# Data published in patent US20260297042A1, “BIARYLAMIDE DERIVATIVES AND THEIR USE AS PKMYT1 INHIBITORS” (CANCER RESEARCH TECHNOLOGY LIMITED, priority 2023, published 2026).
# Counter-ions that a name gives are not always drawn.
# What was measured:
# [1] = target: T1, Human PKMYT1 (Homo sapiens, UniProt Q99640); test: PKMYT1 biochemical ADP-Glo enzymatic assay; conditions: ADP-Glo
# T1 construct: Human PKMYT1 75-362 was cloned as a TEV cleavable 6xHis fusion; 6xHis (TEV cleavable) (cleaved yes); made in house; host or cells: bacterial cells
# T1 sequence (Q99640 75-362): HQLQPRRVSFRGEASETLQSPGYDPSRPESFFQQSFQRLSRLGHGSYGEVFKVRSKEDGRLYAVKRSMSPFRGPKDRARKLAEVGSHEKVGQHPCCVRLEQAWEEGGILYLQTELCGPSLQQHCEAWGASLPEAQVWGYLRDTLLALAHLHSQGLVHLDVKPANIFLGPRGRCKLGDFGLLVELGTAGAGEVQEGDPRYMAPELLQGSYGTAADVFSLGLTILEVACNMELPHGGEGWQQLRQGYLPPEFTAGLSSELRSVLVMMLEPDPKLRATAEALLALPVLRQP
# Summary of the method: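 Compounds were titrated over 10 points (3-fold steps), then 15 nM purified PKMYT1 kinase domain (aa 75-362) and 500 µM ATP were added in pH 7.5 HEPES buffer. After 60 min at 26 °C, remaining ATP was depleted and ADP converted to luminescence for IC50 fitting.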
# [2] = target: T2, WEE1 (Homo sapiens, UniProt P30291); test: Selectivity versus WEE1 assay (ADP-Glo enzymatic assay); assay type: biochemical; conditions: for IC50: ADP-Glo; for PKMYT1 vs. WEE1 selectivity: fold difference in selectivity for PKMYT1 over WEE1
# T2 construct: purchased Thermo Fisher PR7373A
# Summary of the method: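 Compounds were pre-dispensed, enzyme (15 nM final) was added in pH 7.5 HEPES buffer, and ATP ([…]) then started a 60 min incubation at 26° C. Afterwards ADP-Glo reagents were added in turn and luminescence was measured to derive IC50 values.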
# [3] = PKMYT1 kinase domain 15 nM, banded values
# [4] = 15 nM PKMYT1 kinase domain, 500 µM ATP, 60 minutes at 26° C., banded
# [5] = 15 nM WEE1, 60 minutes at 26° C., banded
# [6] = banded, ">N" = at least in this band but could be higher
# T2 sequence (P30291 whole entry): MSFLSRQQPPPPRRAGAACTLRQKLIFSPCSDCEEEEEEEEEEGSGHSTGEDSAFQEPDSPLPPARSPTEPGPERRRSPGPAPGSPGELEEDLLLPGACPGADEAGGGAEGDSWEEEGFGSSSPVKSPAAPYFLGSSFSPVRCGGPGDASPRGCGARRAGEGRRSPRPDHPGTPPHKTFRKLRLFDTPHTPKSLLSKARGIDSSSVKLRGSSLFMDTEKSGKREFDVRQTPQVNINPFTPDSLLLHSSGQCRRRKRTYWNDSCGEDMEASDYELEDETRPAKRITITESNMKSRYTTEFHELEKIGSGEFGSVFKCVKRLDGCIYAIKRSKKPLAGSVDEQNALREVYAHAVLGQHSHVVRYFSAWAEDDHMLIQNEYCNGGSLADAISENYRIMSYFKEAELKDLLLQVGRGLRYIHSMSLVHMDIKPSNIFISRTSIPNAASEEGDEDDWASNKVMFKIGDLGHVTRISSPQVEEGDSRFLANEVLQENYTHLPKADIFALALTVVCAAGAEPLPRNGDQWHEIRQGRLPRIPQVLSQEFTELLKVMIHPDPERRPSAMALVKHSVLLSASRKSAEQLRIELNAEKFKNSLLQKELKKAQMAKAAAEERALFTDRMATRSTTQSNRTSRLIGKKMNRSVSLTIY
Structure (SMILES),"IC50 [1, 3] [nM]","IC50 ([2]; WEE1 15 nM, banded values) [nM]",PKMYT1 vs. WEE1 selectivity ([2]; banded),"IC50 [1, 4] [nM]","IC50 [2, 5] [nM]","PKMYT1 vs. WEE1 selectivity [2, 6]"
"Cc1ccc(O)c(C)c1NC(=O)c1cnc(Nc2cc(C#N)n(C)n2)s1 [BAA-505, 2-((5-cyano-1-methyl-1H-pyrazol-3-yl)amino)-N-(3-hydroxy-2,6-dimethylphenyl)thiazole-5-carboxamide]",50 to 1000,1000 to 11000,W (10-<100 fold),–,–,–
"Cc1ccc(O)c(C)c1NC(=O)c1cnc(Nc2ncco2)s1 [BAA-027, N-(3-hydroxy-2,6-dimethyl-phenyl)-2-(oxazol-2-ylamino)thiazole-5-carboxamide]",–,–,–,50 to 1000,> 11000,X (100-<1000 fold)
"COc1cnc(Cl)nc1Nc1ncc(C(=O)Nc2c(C)ccc(O)c2C)s1 [BAA-568, 2-((2-chloro-5-methoxypyrimidin-4-yl)amino)-N-(3-hydroxy-2,6-dimethylphenyl)thiazole-5-carboxamide]",< 50,> 11000,X (100-<1000 fold),–,–,–
"Cc1c(O)ccc(Cl)c1NC(=O)c1cnc(Nc2ccn(C)n2)s1 [BAA-474, N-(6-Chloro-3-hydroxy-2-methyl-phenyl)-2-[(1-methylpyrazol-3-yl)amino]thiazole-5-carboxamide]",50 to 1000,> 11000,X (100-<1000 fold),–,–,–
"COc1ccccc1Nc1ncc(C(=O)Nc2c(C)ccc(O)c2C)s1 [BAA-528, N-(3-hydroxy-2,6-dimethylphenyl)-2-((2-methoxyphenyl)amino)thiazole-5-carboxamide. TFA salt]",50 to 1000,> 11000,X (100-<1000 fold),–,–,–
"Cc1nnc(Nc2ncc(C(=O)Nc3c(C)ccc(O)c3C)s2)s1 [BAA-263, N-(3-hydroxy-2,6-dimethylphenyl)-2-((5-methyl-1,3,4-thiadiazol-2-yl)amino)thiazole-5-carboxamide]",–,–,–,50 to 1000,> 11000,X (100-<1000 fold)
"Cc1ccc(O)c(C)c1NC(=O)c1cnc(NCCCN2CCN(C)CC2)s1 [BAA-218, N-(3-Hydroxy-2,6-dimethyl-phenyl)-2-[3-(4-methylpiperazin-1-yl)propylamino]thiazole-5-carboxamide]",–,–,–,1000 to 11000,> 11000,W (10-<100 fold)
"Cc1cn(-c2cncc(C(F)(F)F)c2)nc1Nc1ncc(C(=O)Nc2c(C)ccc(O)c2C)s1 [BAA-380, N-(3-hydroxy-2,6-dimethylphenyl)-2-((4-methyl-1-(5-(trifluoromethyl)pyridin-3-yl)-1H-pyrazol-3-yl)amino)thiazole-5-carboxamide]",–,–,–,50 to 1000,1000 to 11000,W (10-<100 fold)
"Cc1ccc(O)c(C)c1NC(=O)c1cnc(Nc2ccn(CC(=O)N3CCC4(CCNC4)CC3)n2)s1 [BAA-225, N-(3-hydroxy-2,6-dimethylphenyl)-2-((1-(2-oxo-2-(2,8-diazaspiro[4.5]decan-8-yl)ethyl)-1H-pyrazol-3-yl)amino)thiazole-5-carboxamide]",–,–,–,< 50,> 11000,X (100-<1000 fold)
"CCC(C(=O)N1CCN(C)CC1)n1ccc(Nc2ncc(C(=O)Nc3c(C)ccc(O)c3C)s2)n1 (stereo not drawn) [BAA-533, N-(3-hydroxy-2,6-dimethylphenyl)-2-((1-(1-(4-methylpiperazin-1-yl)-1-oxobutan-2-yl)-1H-pyrazol-3-yl)amino)thiazole-5-carboxamide]",< 50,> 11000,Y (1000-5000 fold),–,–,–
"Cc1ccc(O)c(C)c1NC(=O)c1cnc(Nc2ccc(F)c(C#N)c2)s1 [BAA-282, 2-((3-cyano-4-fluorophenyl)amino)-N-(3-hydroxy-2,6-dimethylphenyl)thiazole-5-carboxamide]",–,–,–,1000 to 11000,> 11000,W (10-<100 fold)
"Cc1ccc(O)c(C)c1NC(=O)c1cnc(Nc2ncc3cc(F)ccc3n2)s1 [BAA-296, 2-((6-fluoroquinazolin-2-yl)amino)-N-(3-hydroxy-2,6-dimethylphenyl)thiazole-5-carboxamide]",–,–,–,< 50,> 11000,Y (1000-5000 fold)
"Cc1nccc(Nc2ncc(C(=O)Nc3c(C)ccc(O)c3C)s2)n1 [BAA-434, N-(3-hydroxy-2,6-dimethylphenyl)-2-((2-methylpyrimidin-4-yl)amino)thiazole-5-carboxamide]",< 50,> 11000,Y (1000-5000 fold),–,–,–
"Cc1ccc(O)c(C)c1NC(=O)c1cnc(Nc2nccc(-c3ccc(Cl)cc3)n2)s1 [BAA-293, 2-((4-(4-chlorophenyl)pyrimidin-2-yl)amino)-N-(3-hydroxy-2,6-dimethylphenyl)thiazole-5-carboxamide]",–,–,–,< 50,> 11000,Y (1000-5000 fold)
"COCCn1nc(Nc2ncc(C(=O)Nc3c(C)ccc(O)c3C)s2)cc1C [BAA-255, N-(3-hydroxy-2,6-dimethylphenyl)-2-((1-(2-methoxyethyl)-5-methyl-1H-pyrazol-3-yl)amino)thiazole-5-carboxamide]",–,–,–,50 to 1000,> 11000,X (100-<1000 fold)
"Cc1ccc(O)c(C)c1NC(=O)c1cnc(Nc2ccn(CC(=O)O)n2)s1 [BAA-059, 2-[3-[[5-[(3-hydroxy-2,6-dimethyl-phenyl)carbamoyl]thiazol-2-yl]amino]pyrazol-1-yl]acetic acid]",–,–,–,< 50,> 11000,X (100-<1000 fold)
"Cc1ccc(O)c(C)c1NC(=O)c1cnc(Nc2nn(C)c3cccnc23)s1 [BAA-210, N-(3-Hydroxy-2,6-dimethyl-phenyl)-2-[(1-methylpyrazolo[4,3-b]pyridin-3-yl)amino]thiazole-5-carboxamide]",–,–,–,< 50,> 11000,Z (>5000 fold)
Cc1ccc(O)c(Br)c1NC(=O)c1cnc(Nc2ccn(CC(=O)N3CCCC3)n2)s1 [BAA-476],< 50,1000 to 11000,X (100-<1000 fold),–,–,–
"C#Cc1cccc(Nc2ncc(C(=O)Nc3c(C)ccc(O)c3C)s2)n1 [BAA-431, 2-((6-ethynylpyridin-2-yl)amino)-N-(3-hydroxy-2,6-dimethylphenyl)thiazole-5-carboxamide]",50 to 1000,> 11000,X (100-<1000 fold),–,–,–
"Cc1ccc(O)c(C)c1NC(=O)c1cnc(Nc2cn(C)nc2C(F)(F)F)s1 [BAA-548, N-(3-hydroxy-2,6-dimethylphenyl)-2-((1-methyl-3-(trifluoromethyl)-1H-pyrazol-4-yl)amino)thiazole-5-carboxamide]",50 to 1000,> 11000,X (100-<1000 fold),–,–,–
"Cc1ccc(O)c(C)c1NC(=O)c1cnc(Nc2ccn(CC(=O)N3CC4(C3)CN(C(=O)OC(C)(C)C)C4)n2)s1 [BAA-144, tert-butyl 6-[2-[3-[[5-[(3-hydroxy-2,6-dimethyl-phenyl)carbamoyl]thiazol-2-yl]amino]pyrazol-1-yl]acetyl]-2,6-diazaspiro[3.3]heptane-2-carboxylate]",–,–,–,< 50,1000 to 11000,X (100-<1000 fold)
"Cc1ccc(O)c(C)c1NC(=O)c1cnc(Nc2ccn(CC(=O)N3C[C@H]4C[C@@H]3CN4)n2)s1 [BAA-223, 2-((1-(2-((1R,4R)-2,5-diazabicyclo[2.2.1]heptan-2-yl)-2-oxoethyl)-1H-pyrazol-3-yl)amino)-N-(3-hydroxy-2,6-dimethylphenyl)thiazole-5-carboxamide]",–,–,–,< 50,> 11000,X (100-<1000 fold)
"Cc1ccc(O)c(C)c1NC(=O)c1cnc(Nc2cc(C)n(CC(=O)O)n2)s1 [BAA-124, 2-[3-[[5-[(3-hydroxy-2,6-dimethyl-phenyl)carbamoyl]thiazol-2-yl]amino]-5-methyl-pyrazol-1-yl]acetic acid]",–,–,–,< 50,> 11000,X (100-<1000 fold)
"Cc1ccc(O)c(C)c1NC(=O)c1cnc(Nc2nn(C)cc2C#N)s1 [BAA-496, 2-((4-cyano-1-methyl-1H-pyrazol-3-yl)amino)-N-(3-hydroxy-2,6-dimethylphenyl)thiazole-5-carboxamide]",< 50,> 11000,Y (1000-5000 fold),–,–,–
"Cc1ccc(O)c(C)c1NC(=O)c1cnc(Nc2nccn2C)s1 [BAA-552, N-(3-hydroxy-2,6-dimethylphenyl)-2-((1-methyl-1H-imidazol-2-yl)amino)thiazole-5-carboxamide]",50 to 1000,> 11000,X (100-<1000 fold),–,–,–
